Columns and labels:
[1] = test system: Human dermal fibroblasts; experiment: Cell activity (AlamarBlue) of cells irradiated with UV through a UV wavelength conversion substance solution; format: cell-based; settings: UV dose 0-100 mJ/cm^2, FIG. 3
Protocol: The UV wavelength conversion substances (1) and (2) were dissolved in water to prepare solutions having a concentration of 1% or 5%.
The UV wavelength conversion substances (3) and (4) were dispersed in alcohol to prepare 5% and 10% dispersions.
(§1) 1. Human dermal fibroblasts and human skin keratinocytes purchased from Kurabo Industries Ltd. were used. A cell suspension (1 mL) stored in liquid nitrogen was thawed in a water bath (37° C.) to an extent that small ice pellets remained, and then diluted with 9 mL of warm medium. 2. The diluted suspension was mixed gently and then transferred to a T75 flask and incubated overnight at 37° C. 3. The next day, the medium was replaced with 10 mL of fresh medium. 4. The medium was replaced periodically (once every 2 days for fibroblasts and once every 2 to 3 days for keratinocytes) and cell proliferation was continued. Meanwhile, the cells were observed using a microscope, and it was confirmed that the cells grew in the correct form. 5. After the cells reached about 80% confluence, the cells were passaged. The cells were passaged by washing the cells once with 10 mL of warm PBS, adding 5 mL of warm trypsin to a T75 flask, covering the bottom of the flask with a trypsin solution, followed by aspirating at room temperature for 1 minute. 6. […]

[2] = test system: Human dermal fibroblasts; experiment: Restoration of cell activity decreased by prior UV irradiation (AlamarBlue); format: cell-based; settings: pre-irradiation 400 mJ/cm^2 without substance, then UV 0-200 mJ/cm^2 through 0.4% or 2% C-phycocyanin (equivalent effect), FIG. 5
Protocol: as §1, with “6. The flask was allowed to stand in an oven at 37° C. for (maximum) 2 minutes for fibroblasts and (maximum) 7 minutes for keratinocytes. The cells were observed using a microscope and confirmed to be small and oval. 7. Thereafter, the side of the T75 flask was lightly tapped to release the cells.” for “6.”

In the case of C-phycocyanin, the “cell activity (relative fluorescence intensity)” value ([1]; 0.4% C-phycocyanin solution) is reported as “the decrease in cell activity was suppressed”, the “cell activity (relative fluorescence intensity)” value ([1]; 2% C-phycocyanin solution) is reported as “the cell activity was even increased compared to the case where UV irradiation was not carried out” and the “cell activity (relative fluorescence intensity) after prior decrease by UV” value [2] is reported as “cell activity was recovered”.

From patent US12440431B2, “Cosmetic comprising ultraviolet wavelength conversion substance” (Shiseido Company, Ltd., priority 2019, dated 2025)
